From patent publication US20220281848A1, “PYRAZOLE-SUBSTITUTED PYRROLIDINONES AS HERBICIDES” (FMC Corporation, priority 2019, published 2022)

System: plants
Assay: Test D post-emergence, other plants of Tables D2 and D4
Format: in vivo
Details: for VERPE damage rating (100=total damage to plant; 0=no damage to plant): "Cereals" Postemergent, evaluated after 15 d; for damage to plant (100=total damage to plant; 0=no damage to plant), ABUTH / damage to plant (100=total damage to plant; 0=no damage to plant), AMARE / damage to plant (100=total damage to plant; 0=no damage to plant), BIDPI / damage to plant (100=total damage to plant; 0=no damage to plant), BRAPL / damage to plant (100=total damage to plant; 0=no damage to plant), CYPES / damage to plant (100=total damage to plant; 0=no damage to plant), DIGSA / damage to plant (100=total damage to plant; 0=no damage to plant), ECHCG / damage to plant (100=total damage to plant; 0=no damage to plant), ELEIN / damage to plant (100=total damage to plant; 0=no damage to plant), EPHHL / damage to plant (100=total damage to plant; 0=no damage to plant), GLXMA / damage to plant (100=total damage to plant; 0=no damage to plant), IPOHE / damage to plant (100=total damage to plant; 0=no damage to plant), ORYSA / damage to plant (100=total damage to plant; 0=no damage to plant), PANMI / damage to plant (100=total damage to plant; 0=no damage to plant), SETFA / damage to plant (100=total damage to plant; 0=no damage to plant), SIDSP / damage to plant (100=total damage to plant; 0=no damage to plant), SORVU: post-emergence
Summary of the method: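 Damage was rated visually from 0 (none) to 100 (total), at 20 DAA for pre-emergence and 15 d for post-emergence. Plants grew from safener-treated seed in a glasshouse at 24/18° C. or 20/16° C. day/night, 65% humidity, watered twice daily.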

CCn1nc([C@@H]2CN(C)C(=O)[C@H]2C(=O)Nc2cccc(F)c2F)c2cccc(F)c21 [Compound 14]
VERPE damage rating (100=total damage to plant; 0=no damage to plant) (Rates 130): 50
VERPE damage rating (100=total damage to plant; 0=no damage to plant) (Rates 250): 50
VERPE damage rating (100=total damage to plant; 0=no damage to plant) (Rates 500): 60
damage to plant (100=total damage to plant; 0=no damage to plant), ABUTH (rate 130, evaluated after 15 d): 0
damage to plant (100=total damage to plant; 0=no damage to plant), ABUTH (rate 250, evaluated after 15 d): 0
damage to plant (100=total damage to plant; 0=no damage to plant), ABUTH (rate 500, evaluated after 15 d): 10
damage to plant (100=total damage to plant; 0=no damage to plant), AMARE (rate 130, evaluated after 15 d): 0
damage to plant (100=total damage to plant; 0=no damage to plant), AMARE (rate 250, evaluated after 15 d): 0
damage to plant (100=total damage to plant; 0=no damage to plant), AMARE (rate 500, evaluated after 15 d): 30
damage to plant (100=total damage to plant; 0=no damage to plant), BIDPI (rate 130, evaluated after 15 d): 10
damage to plant (100=total damage to plant; 0=no damage to plant), BIDPI (rate 250, evaluated after 15 d): 20
damage to plant (100=total damage to plant; 0=no damage to plant), BIDPI (rate 500, evaluated after 15 d): 30
damage to plant (100=total damage to plant; 0=no damage to plant), BRAPL (rate 130, evaluated after 15 d): 80
damage to plant (100=total damage to plant; 0=no damage to plant), BRAPL (rate 250, evaluated after 15 d): 70
damage to plant (100=total damage to plant; 0=no damage to plant), BRAPL (rate 500, evaluated after 15 d): 80
damage to plant (100=total damage to plant; 0=no damage to plant), CYPES (rate 130, evaluated after 15 d): 0
damage to plant (100=total damage to plant; 0=no damage to plant), CYPES (rate 250, evaluated after 15 d): 0
damage to plant (100=total damage to plant; 0=no damage to plant), CYPES (rate 500, evaluated after 15 d): 0
damage to plant (100=total damage to plant; 0=no damage to plant), DIGSA (rate 130, evaluated after 15 d): 60
damage to plant (100=total damage to plant; 0=no damage to plant), DIGSA (rate 250, evaluated after 15 d): 70
damage to plant (100=total damage to plant; 0=no damage to plant), DIGSA (rate 500, evaluated after 15 d): 70
damage to plant (100=total damage to plant; 0=no damage to plant), ECHCG (rate 250, evaluated after 15 d): 80
damage to plant (100=total damage to plant; 0=no damage to plant), ECHCG (rate 500, evaluated after 15 d): 80
damage to plant (100=total damage to plant; 0=no damage to plant), ELEIN (rate 130, evaluated after 15 d): 0
damage to plant (100=total damage to plant; 0=no damage to plant), ELEIN (rate 250, evaluated after 15 d): 0
damage to plant (100=total damage to plant; 0=no damage to plant), ELEIN (rate 500, evaluated after 15 d): 0
damage to plant (100=total damage to plant; 0=no damage to plant), EPHHL (rate 130, evaluated after 15 d): 20
damage to plant (100=total damage to plant; 0=no damage to plant), EPHHL (rate 250, evaluated after 15 d): 30
damage to plant (100=total damage to plant; 0=no damage to plant), EPHHL (rate 500, evaluated after 15 d): 50
damage to plant (100=total damage to plant; 0=no damage to plant), GLXMA (rate 130, evaluated after 15 d): 0
damage to plant (100=total damage to plant; 0=no damage to plant), GLXMA (rate 250, evaluated after 15 d): 0
damage to plant (100=total damage to plant; 0=no damage to plant), GLXMA (rate 500, evaluated after 15 d): 0
damage to plant (100=total damage to plant; 0=no damage to plant), IPOHE (rate 130, evaluated after 15 d): 0
damage to plant (100=total damage to plant; 0=no damage to plant), IPOHE (rate 250, evaluated after 15 d): 10
damage to plant (100=total damage to plant; 0=no damage to plant), IPOHE (rate 500, evaluated after 15 d): 20
damage to plant (100=total damage to plant; 0=no damage to plant), ORYSA (rate 130, evaluated after 15 d): 0
damage to plant (100=total damage to plant; 0=no damage to plant), ORYSA (rate 250, evaluated after 15 d): 0
damage to plant (100=total damage to plant; 0=no damage to plant), ORYSA (rate 500, evaluated after 15 d): 0
damage to plant (100=total damage to plant; 0=no damage to plant), PANMI (rate 130, evaluated after 15 d): 0
damage to plant (100=total damage to plant; 0=no damage to plant), PANMI (rate 250, evaluated after 15 d): 0
damage to plant (100=total damage to plant; 0=no damage to plant), PANMI (rate 500, evaluated after 15 d): 0
damage to plant (100=total damage to plant; 0=no damage to plant), SETFA (rate 130, evaluated after 15 d): 70
damage to plant (100=total damage to plant; 0=no damage to plant), SETFA (rate 250, evaluated after 15 d): 70
damage to plant (100=total damage to plant; 0=no damage to plant), SETFA (rate 500, evaluated after 15 d): 70
damage to plant (100=total damage to plant; 0=no damage to plant), SIDSP (rate 130, evaluated after 15 d): 0
damage to plant (100=total damage to plant; 0=no damage to plant), SIDSP (rate 250, evaluated after 15 d): 0
damage to plant (100=total damage to plant; 0=no damage to plant), SIDSP (rate 500, evaluated after 15 d): 30
damage to plant (100=total damage to plant; 0=no damage to plant), SORVU (rate 130, evaluated after 15 d): 0
damage to plant (100=total damage to plant; 0=no damage to plant), SORVU (rate 250, evaluated after 15 d): 0
damage to plant (100=total damage to plant; 0=no damage to plant), SORVU (rate 500, evaluated after 15 d): 20
